Results published in patent publication US10322187B2, “Reduced toxicity molecular conjugates of anti-fungal agents” (Lehigh University, priority 2015, dated 2019).
Read-outs that look alike come from different tables or passages of the source.

How the values were obtained:
sheep red blood cells = test: Hemolysis measurements, release of hemoglobin; type: cell-based
Experimental: Sheep Red Blood Cells, 10%, in saline (Innovative Research, Novi, Mich.), were diluted in saline (pH 7.4) to a concentration of 4%, which corresponds to 4×10^7 cells/mL. All measurements were carried out in duplicate. Solutions of Amphotericin B (Sigma-Aldrich) were prepared by adding 10 μL of a DMSO solution containing a given concentration of the antibiotic (i.e., ranging from 0.2 mM to 50 mM) to 490 μL of PBS. After the resulting solution was vortex mixed for 30 seconds (s) it was incubated at 37° C. for 15 min. The resulting solution of antibiotic (500 μL) was then mixed with 500 μL of the 4% erythrocyte dispersion at 37° C. in a 1 mL plastic centrifuge vial to give a dispersion that was vortex mixed at slow rate for 5 s. After 1 h of incubation at 37° C., all samples were centrifuged (1500 g, Eppendorf centrifuge 5415C, 5000 rpm) at rt for 5 min. The supernatant (˜0.7 mL) from each plastic vial was carefully separated from sediment using a disposable glass pipette and quickly transferred to test tube. A volume of 50 μL of this supernatant was then transferred to a UV cell containing 500 μL of PBS that was maintained at 37° C. The UV spectrum was then scanned (450-650 nm) and the absorbance at 575 nm used to determine the extent of hemolysis. The extent of 0% and 100% of hemolysis was obtained from A575 values of experiments that were run in absence of AmphB (control, [A575,]o) and in presence, 100 μM AmphB ([A575]max), respectively.

C. gatti = test: Antifungal activities, MIC/MFC; type: cell-based
Experimental: (§1) A similar sequence of reactions was carried out using lysine dicholamide in place of cholic acid afforded VJ-1147 of Table 2. To assess the antifungal properties of the diwalled VJ-1138 (Table 2) and 2a of Table 3, their in vitro activities were examined against four clinically relevant microbes, i.e., C. albicans, C. glabrata, C. neoformans, and C. gatti (Table 4).
(§2) Minimum inhibitory concentrations (MIC) and minimum fungicidal concentrations (MFC) are the lowest concentrations that are required for completely inhibiting growth, and killing at least 99% of the fungi, respectively.
(§3) The above molecules were tested for antifungal activity. Minimum inhibitory concentrations (MIC) and minimum fungicidal concentrations (MFC) are the lowest concentrations that are required for completely inhibiting growth, and killing at least 99% of the fungi, respectively. As is apparent from Table 4 below, there is a general trend; i.e., increased antifungal activity is observed as the length of the hydrocarbon chain that separates the facial amphiphile from the Amphotericin B moiety is decreased.

C. neoformans = test: Antifungal activities, MIC/MFC; type: cell-based
Experimental: as §1, §2, §3

C. glabrata = test: Antifungal activities, MIC/MFC; type: cell-based
Experimental: as §1, §2, §3

C. albicans = test: Antifungal activities, MIC/MFC; type: cell-based
Experimental: as §1, §2, §3

[1] = Critical aggregation concentration (CAC) by UV absorptivity; type: physicochemical; details: PBS, 37° C., absorptivity at 409 nm
Text: If one lets: (i) T, m, and P represent the total, the monomeric, and the aggregate concentrations of this macrolide, respectively; (ii) ε represent the apparent molar absorptivity; and (iii) εm and εp represent the molar absorptivity for the monomeric and aggregate components, respectively, then it can be shown that ε=εp+(εm−εp)m/T. See Yamashita K, Janout V, Bernard E M, Armstrong D, and Regen, S L. Micelle/monomer control over the membrane disrupting properties of an amphiphilic antibiotic. J. Am. Chem. Soc. 117 (1995) 6249-6253. At concentrations that are in excess of its CAC, m is constant, and ε is expected to be inversely proportional to T. Thus, by measuring the apparent molar absorptivity as a function of the reciprocal of the concentration of VJ-1138, its CAC value is estimated to be 0.9 μM (from the intercept of two straight lines).
Determination of Critical Aggregation Concentration (CAC) of AmphB and molecular conjugates. Solutions of AmphB and molecular conjugates in DMSO (Sigma-Aldrich) were prepared having a concentration of 1.00 mM. […] The UV spectrum was then recorded in the range of 250-550 nm. The absorbance at 408 nm was plotted as a function of the reciprocal value of the concentration of AmB and the critical aggregation concentration of the molecular conjugates was then determined, graphically.

[2] = system: C. albicans, C. glabrata, C. neoformans, and C. gatti; test: In vitro antifungal activity, general statements on the four microbes; type: cell-based; details: at 11 μM
Experimental: as §1, §2

HEK293T cells = test: Inhibition of cell growth, MTT cell viability; type: cell-based, human; details: varying concentrations; FIG. 11
Experimental: Human embryonic kidney HEK293 cells were cultured in Dulbecco's modified Eagle's medium (DMEM supplemented with 10% FBS, 100 U/mL penicillin, and 0.1 mg/mL SI-10 streptomycin) in a humidified atmosphere of 5% CO2 at 37° C.
HEK293T cells were seeded in 96-well plates at a density of 6,000 cells/well and incubated overnight. Before treatment, compounds aliquots were solubilized in DMSO to obtain 10 mM stock solutions. Appropriate volumes of these stock solutions were added to DMEM media so the final concentration of DMSO is equal to 1%. After removal of cell media, 50 μL of treatment solutions were added to each well and incubated at 37° C. for 2 h. After treatment, the media was removed, and 100 μL of complete medium was added to each well before returning the plate to the incubator. Cell viability was determined after 72 h using the colorimetric MTT assay. Briefly, 10 μL of a 5 mg/mL MTT stock solution was added to the treated cells and incubated for 2 h at 37° C. The resulting formazan crystals were solubilized in 200 μL of DMSO, and the absorbance was measured at 580 nm using an Infinite 200 PRO microplate reader (Tecan). Cell viability was calculated against control cells treated with the vehicle in DMEM.

[3] = at concentrations as high as 400 μM, 37° C. in PBS, pH 7.4
[4] = summary, no concentration stated
[5] = second Table 4 (Example 4), C. gatti
[6] = second Table 4 (Example 4), C. neoformans
[7] = second Table 4 (Example 4), C. glabrata
[8] = second Table 4 (Example 4), C. albicans

**Q.** Which results are given for `C[C@@H]1[C@H](O)[C@@H](C)/C=C/C=C/C=C/C=C/C=C/C=C/C=C/[C@H](O[C@@H]2O[C@H](C)[C@@H](O)[C@H](N)[C@@H]2O)C[C@@H]2O[C@](O)(C[C@@H](O)C[C@@H](O)[C@H](O)CC[C@@H](O)C[C@@H](O)CC(=O)O[C@H]1C)C[C@H](O)[C@H]2C(=O)O` [AmphB, amphotericin B, reference compound]?
**A.** EH50, concentration required to induce 50% release of hemoglobin from erythrocytes (sheep red blood cells; 37° C. in saline, pH 7.4): 4 µM; MFC (C. gatti; first Table 4, C. gatti, read-out: MFC): 0.5 µM; MIC (C. gatti; first Table 4, C. gatti, read-out: MIC): 0.3 µM; MFC (C. gatti; second Table 4 (Example 4), C. gatti, read-out: MFC): 0.5 µg/mL; MIC (C. gatti; second Table 4 (Example 4), C. gatti, read-out: MIC): 0.3 µg/mL; MFC (C. neoformans; Cryptococcus neoformans, first Table 4, C. neoformans, read-out: MFC): 0.5 µM; MIC (C. neoformans; Cryptococcus neoformans, first Table 4, C. neoformans, read-out: MIC): 0.3 µM; MFC (C. neoformans; Cryptococcus neoformans, second Table 4 (Example 4), C. neoformans, read-out: MFC): 0.5 µg/mL; MIC (C. neoformans; Cryptococcus neoformans, second Table 4 (Example 4), C. neoformans, read-out: MIC): 0.3 µg/mL; MFC (C. glabrata; Nakaseomyces glabratus, first Table 4, C. glabrata): 1 µM; MIC (C. glabrata; Nakaseomyces glabratus, first Table 4, C. glabrata, read-out: MIC): 0.5 µM; MFC (C. glabrata; Nakaseomyces glabratus, second Table 4 (Example 4), C. glabrata): 1 µg/mL; MIC (C. glabrata; Nakaseomyces glabratus, second Table 4 (Example 4), C. glabrata, read-out: MIC): 0.5 µg/mL; MIC (C. albicans; Candida albicans, first Table 4, lowest concentration completely inhibiting growth, C. albicans, read-out: MIC): 0.5 µM; MFC (C. albicans; Candida albicans, first Table 4, lowest concentration killing at least 99% of the fungi, C. albicans, read-out: MFC): 1 µM; MFC (C. albicans; Candida albicans, second Table 4 (Example 4), C. albicans, read-out: MFC): 1 µg/mL; MIC (C. albicans; Candida albicans, second Table 4 (Example 4), C. albicans, read-out: MIC): 0.5 µg/mL; critical aggregation concentration (CAC) [1]: ~0.9 µM

**Q.** Which results are given for `CC1OC(O[C@H]2/C=C/C=C/C=C/C=C/C=C/C=C/C=C/[C@H](C)[C@@H](O)[C@@H](C)[C@H](C)OC(=O)C[C@H](O)C[C@H](O)CC[C@@H](O)[C@H](O)C[C@H](O)C[C@]3(O)C[C@H](O)[C@@H](C(=O)NCCCCCCCC(=O)N(CCCCNC(=O)C(CCCCNC(=O)CC[C@@H](C)C4CCC5C6C(O)CC7CC(O)CCC7(C)C6CC(O)C54C)NC(=O)CC[C@@H](C)C4CCC5C6C(O)CC7CC(O)CCC7(C)C6CC(O)C54C)CCCNC(=O)C(CCCCNC(=O)CC[C@@H](C)C4CCC5C6C(O)CC7CC(O)CCC7(C)C6CC(O)C54C)NC(=O)CC[C@@H](C)C4CCC5C6C(O)CC7CC(O)CCC7(C)C6CC(O)C54C)[C@H](C2)O3)C(O)C(N)C1O` (stereo partly drawn) [VJ-1155]?
**A.** antifungal activity [2]: no antifungal activity; MIC (C. gatti): > 11 µM; MIC (C. neoformans; Cryptococcus neoformans): > 11 µM; MIC (C. glabrata; Nakaseomyces glabratus): > 11 µM; MIC (C. albicans; Candida albicans): > 11 µM

**Q.** What does the source list for `CC1OC(O[C@H]2/C=C/C=C/C=C/C=C/C=C/C=C/C=C/[C@H](C)[C@@H](O)[C@@H](C)[C@H](C)OC(=O)C[C@H](O)C[C@H](O)CC[C@@H](O)[C@H](O)C[C@H](O)C[C@]3(O)C[C@H](O)[C@@H](C(=O)NCCCCCCCCNC(=O)CC[C@@H](C)C4CCC5C6C(O)CC7CC(O)CCC7(C)C6CC(O)C54C)[C@H](C2)O3)C(O)C(N)C1O` (stereo partly drawn) [YYM-69]?
**A.** hemolytic activity (sheep red blood cells; [3]): negligible hemolytic activities; hemolytic activity (sheep red blood cells; [4]): negligible hemolytic activity; MFC (C. gatti; [5]): 2 µg/mL; MIC (C. gatti; [5]): 1 µg/mL; MFC (C. neoformans; [6]): 2 µg/mL; MIC (C. neoformans; [6]): 1 µg/mL; MIC (C. glabrata; [7]): >16/— μg/mL; MFC (C. albicans; [8]): 2 µg/mL; MIC (C. albicans; [8]): 2 µg/mL; toxicity towards HEK293 cells (HEK293T cells): negligible cytotoxicity

**Q.** What does the source list for `CC1OC(O[C@H]2/C=C/C=C/C=C/C=C/C=C/C=C/C=C/[C@H](C)[C@@H](O)[C@@H](C)[C@H](C)OC(=O)C[C@H](O)C[C@H](O)CC[C@@H](O)[C@H](O)C[C@H](O)C[C@]3(O)C[C@H](O)[C@@H](C(=O)NCCCCCCCCCCNC(=O)CC[C@@H](C)C4CCC5C6C(O)CC7CC(O)CCC7(C)C6CC(O)C54C)[C@H](C2)O3)C(O)C(N)C1O` (stereo partly drawn) [YYM-71]?
**A.** hemolytic activity (sheep red blood cells; [3]): negligible hemolytic activities; hemolytic activity (sheep red blood cells; [4]): negligible hemolytic activity; MFC (C. gatti; [5]): > 16 µg/mL; MIC (C. gatti; [5]): 1 µg/mL; MFC (C. neoformans; [6]): > 16 µg/mL; MIC (C. neoformans; [6]): 2 µg/mL; MIC (C. glabrata; [7]): >16/— μg/mL; MIC (C. albicans; [8]): >16/— μg/mL; toxicity towards HEK293 cells (HEK293T cells): negligible cytotoxicity
